From patent publication US20110182850A1, “ORGANIC COMPOUNDS AND THEIR USES” (priority 2009, published 2011)
Like-named read-outs stand apart in the source and are kept apart here.

Tests used:
[1] = target: T1, HCV NS3-4A serine protease (full-length NS3-4A protein, genotype 1a, strain HCV-1) (Hepatitis C virus genotype 1a, UniProt P26664); assay: HCV NS3-4A protease assay; format: biochemical; settings: Protease IC50
T1 construct: using the full-length NS3-4A protein (genotype 1a, strain HCV-1)
T1 sequence (P26664 1658-1711): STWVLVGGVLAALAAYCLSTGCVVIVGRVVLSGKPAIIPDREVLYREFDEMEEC
T1 sequence (P26664 1027-1657): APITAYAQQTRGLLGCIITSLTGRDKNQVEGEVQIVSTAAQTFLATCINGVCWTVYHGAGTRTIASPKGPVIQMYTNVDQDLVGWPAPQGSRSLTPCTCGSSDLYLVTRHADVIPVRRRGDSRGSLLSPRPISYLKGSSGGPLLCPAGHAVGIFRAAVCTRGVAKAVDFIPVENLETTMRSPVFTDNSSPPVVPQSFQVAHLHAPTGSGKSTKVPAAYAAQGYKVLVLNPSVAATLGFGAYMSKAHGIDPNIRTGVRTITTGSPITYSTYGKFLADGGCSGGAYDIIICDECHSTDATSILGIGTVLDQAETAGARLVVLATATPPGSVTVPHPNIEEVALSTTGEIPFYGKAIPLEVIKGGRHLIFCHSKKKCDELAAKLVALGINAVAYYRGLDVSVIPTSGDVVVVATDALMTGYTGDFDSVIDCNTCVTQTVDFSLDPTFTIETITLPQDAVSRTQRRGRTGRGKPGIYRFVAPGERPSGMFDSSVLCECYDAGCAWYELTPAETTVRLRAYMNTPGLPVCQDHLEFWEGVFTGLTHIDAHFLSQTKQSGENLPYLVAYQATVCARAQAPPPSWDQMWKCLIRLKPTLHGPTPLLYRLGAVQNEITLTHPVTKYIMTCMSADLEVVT
Protocol: The inhibitory activity of certain compounds of Table A against HCV NS3-4A serine protease is determined in a homogenous assay using the full-length NS3-4A protein (genotype 1a, strain HCV-1) and a commercially available internally-quenched fluorogenic peptide substrate as described by Taliani, M., et al. 1996 Anal. Biochem. 240:60-67, which is incorporated by reference in its entirety.

in vivo = assay: in vivo; set-up: species or system Sprague Dawley rats; settings: rat; for Cmax: Sprague Dawley, po, 10 mg/kg
Protocol: Certain compounds of Table A and Comparative Example 1 (Compound A-7 of copending international patent application serial no. PCT/EP08/063,460) are administered as a solution orally via gavage at 10 mg/kg to Sprague Dawley rats at a dosing volume of 10 ml/kg. Samples are collected via a surgically implanted cannula at selected timepoints deemed necessary to characterize pharmacokinetic parameters. Blood samples are placed on wet ice and spun down to plasma within 5 minutes of timepoint collection. Plasma samples are frozen until bioanalytical analysis.
Certain compounds of Table A and Comparative Example 1 are administered intravenously into a surgically implanted cannula as a solution at 1 mg/kg to Sprague Dawley rats at a dosing volume of […]. Samples are collected via another surgically implanted cannula at selected timepoints deemed necessary to characterize pharmacokinetic parameters. Blood samples are placed on wet ice and spun down to plasma within 5 minutes of timepoint collection. Plasma samples are frozen until bioanalytical analysis.

[2] = Measurement of thermodynamic solubility; format: physicochemical; settings: thermodynamic from solid, read-out: solubility in water
Protocol: Thermodynamic solubility for the compounds of the invention listed in Table C is measured by a published literature procedure, e.g., Liping Zhou, et al., J. Pharm. Sci (2007) 96(11): 3052-3071.
The DMSO stocks of test compounds previously dissolved in 25 μL of DMSO (˜10 mM) in mini-prep vial (MPV: Whatman, with PVDF filter and 0.45 μm pore size) chamber were evaporated via a GeneVac HT-4X evaporator for approximately 1 hour, at the guard temperature of 30° C. An aliquot of 250 μL buffer solution (pH 1.0 or 6.8) was added into each MPV chamber containing powders reconstituted from DMSO stock solutions. The MPV filter plungers were pushed down into the chamber until the membrane of the filter plunger slightly touched the surface of the buffer to promote equilibrium between the two compartments and to minimize the adsorption due to non-specific binding of samples during the subsequent 24-hr incubation (at 600 RPM at room temperature). Immediately after the 24-hr incubation, the plungers were further pushed down to the bottom of the chambers. More solution was pushed through the membrane and entered the plunger compartment. The filter/chamber assemblies were then put on a shaker for another 30 minutes at 600 RPM. Afterwards, filtrates were further diluted (1:10) with 50/50 acetonitrile/water solvent followed by a thorough mixing process. Both plates with diluted and undiluted filtrates were analyzed by HPLC and quantified against the four-point standard dilution curve of the same test compound (5 μM, 35 μM, 65 μM and 100 μM, respectively). In the current study, solubility reflects the average of triplicate samples tested at each pH.

[3] = pH 1, simulated gastric fluid, pH of about 1
[4] = pH 6.8, aqueous buffer, pH of about 6.8

In the case of C=C[C@@H]1C[C@]1(NC(=O)[C@@H]1C[C@@]2(CN1C(=O)[C@@H](NC(=O)[C@@H](NC(=O)[C@@H]1CCCCN1C(C)C)C1CCCCC1)C(C)(C)C)C(C)(C)C21CCC1)C(=O)NS(=O)(=O)C1(C)CC1 [Compound 63, (5R,8S)-7-[(2S)-2-{[(2S)-2-cyclohexyl-2-({[(2S)-1-isopropylpiperidin-2-yl]carbonyl}amino)acetyl]amino}-3,3-dimethylbutanoyl]-10,10-dimethyl-N-[(1R,2S)-1-{[(1-methylcyclopropyl)sulfonyl]carbamoyl}-2-vinylcyclopropyl]-7-azadispiro[3.0.4.1]decane-8-carboxamide], the IC50 [1] is reported as 1.8 nM, the Cmax (in vivo) is reported as 320 nM and the solubility at 24 h [2, 3] is reported as at least 100 µM. For the same compound, the solubility at 24 h [2, 4] was at least 30 µM.
C=C[C@@H]1C[C@]1(NC(=O)[C@@H]1C[C@@]2(CN1C(=O)[C@@H](NC(=O)[C@@H](NC(=O)[C@@H]1CCCCN1CC)C1CCCCC1)C(C)(C)C)C(C)(C)C21CCC1)C(=O)NS(=O)(=O)C1(CCC)CC1 [Compound 67, (5R,8S)-7-[(2S)-2-{[(2S)-2-cyclohexyl-2-({[(2S)-1-ethylpiperidin-2-yl]carbonyl}amino)acetyl]amino}-3,3-dimethylbutanoyl]-10,10-dimethyl-N-[(1R,2S)-1-{[(1-propylcyclopropyl)sulfonyl]carbamoyl}-2-vinylcyclopropyl]-7-azadispiro[3.0.4.1]decane-8-carboxamide] gave an IC50 [1] of 1.5 nM, a solubility at 24 h [2, 3] of at least 100 µM and a solubility at 24 h [2, 4] of at least 30 µM.
C=C[C@@H]1C[C@]1(NC(=O)[C@@H]1C[C@@]2(CN1C(=O)[C@@H](NC(=O)[C@@H](NC(=O)[C@@H]1CCCCN1C(C)C)C1CCCCC1)C(C)(C)C)C(C)(C)C21CCC1)C(=O)NS(=O)(=O)C1(CCC)CC1 [Compound 68, (5R,8S)-7-[(2S)-2-{[(2S)-2-cyclohexyl-2-({[(2S)-1-isopropylpiperidin-2-yl]carbonyl}amino)acetyl]amino}-3,3-dimethylbutanoyl]-10,10-dimethyl-N-[(1R,2S)-1-{[(1-propylcyclopropyl)sulfonyl]carbamoyl}-2-vinylcyclopropyl]-7-azadispiro[3.0.4.1]decane-8-carboxamide] gave an IC50 [1] of 4 nM, a Cmax (in vivo) of 348 nM and a solubility at 24 h [2, 3] of at least 100 µM. It also gave a solubility at 24 h [2, 4] of at least 30 µM.
C=C[C@@H]1C[C@]1(NC(=O)[C@@H]1C[C@@]2(CN1C(=O)[C@@H](NC(=O)[C@@H](NC(=O)[C@@H]1CCCN1CC)C1CCCCC1)C(C)(C)C)C(C)(C)C21CCC1)C(=O)NS(=O)(=O)C1(CCC)CC1 [Compound 69, (5R,8S)-7-[(2S)-2-{[(2S)-2-cyclohexyl-2-({[(2S)-1-ethylpyrrolidin-2-yl]carbonyl}amino)acetyl]amino}-3,3-dimethylbutanoyl]-10,10-dimethyl-N-[(1R,2S)-1-{[(1-propylcyclopropyl)sulfonyl]carbamoyl}-2-vinylcyclopropyl]-7-azadispiro[3.0.4.1]decane-8-carboxamide] gave an IC50 [1] of 1.5 nM, a solubility at 24 h [2, 3] of at least 100 µM and a solubility at 24 h [2, 4] of at least 30 µM.
Work on CC[C@@H]1C[C@]1(NC(=O)[C@@H]1C[C@@]2(CN1C(=O)[C@@H](NC(=O)[C@@H](NC(=O)[C@@H]1CCCCN1C(C)C)C1CCCCC1)C(C)(C)C)C(C)(C)C21CCC1)C(=O)NS(=O)(=O)C1(C)CC1 [Compound 70, (5R,8S)-7-[(2S)-2-{[(2S)-2-cyclohexyl-2-({[(2S)-1-isopropylpiperidin-2-yl]carbonyl}amino)acetyl]amino}-3,3-dimethylbutanoyl]-N-[(1R,2R)-2-ethyl-1-{[(1-methylcyclopropyl)sulfonyl]carbamoyl}cyclopropyl]-10,10-dimethyl-7-azadispiro[3.0.4.1]decane-8-carboxamide] yielded an IC50 [1] of 2 nM, a Cmax (in vivo) of 130 nM and a solubility at 24 h [2, 3] of at least 100 µM. For the same compound, the solubility at 24 h [2, 4] was at least 30 µM.
With C=C[C@@H]1C[C@]1(NC(=O)[C@@H]1C[C@@]2(CN1C(=O)[C@@H](NC(=O)[C@@H](NC(=O)[C@@H]1CCCN1CC)C1CCCCC1)C(C)(C)C)C(C)(C)C21CCC1)C(=O)NS(=O)(=O)C1(C)CC1 [Compound 71, (5R,8S)-7-[(2S)-2-{[(2S)-2-cyclohexyl-2-({[(2S)-1-ethylpyrrolidin-2-yl]carbonyl}amino)acetyl]amino}-3,3-dimethylbutanoyl]-10,10-dimethyl-N-[(1R,2S)-1-{[(1-methylcyclopropyl)sulfonyl]carbamoyl}-2-vinylcyclopropyl]-7-azadispiro[3.0.4.1]decane-8-carboxamide] the IC50 [1] was 0.3 nM, the solubility at 24 h [2, 3] was at least 100 µM and the solubility at 24 h [2, 4] was at least 30 µM.
Compound C=C[C@@H]1C[C@]1(NC(=O)[C@@H]1C[C@@]2(CN1C(=O)[C@@H](NC(=O)[C@@H](NC(=O)[C@H]1CCCCN1C(C)C)C1CCCCC1)C(C)(C)C)C(C)(C)C21CCC1)C(=O)NS(=O)(=O)C1(C)CC1 [Compound 74, (5R,8S)-7-[(2S)-2-{[(2S)-2-cyclohexyl-2-({[(2R)-1-isopropylpiperidin-2-yl]carbonyl}amino)acetyl]amino}-3,3-dimethylbutanoyl]-10,10-dimethyl-N-[(1R,2S)-1-{[(1-methylcyclopropyl)sulfonyl]carbamoyl}-2-vinylcyclopropyl]-7-azadispiro[3.0.4.1]decane-8-carboxamide] has an IC50 [1] of 0.8 nM, a solubility at 24 h [2, 3] of at least 100 µM and a solubility at 24 h [2, 4] of at least 30 µM.
CCCC1(S(=O)(=O)NC(=O)[C@@]2(NC(=O)[C@@H]3C[C@@]4(CN3C(=O)[C@@H](NC(=O)[C@@H](NC(=O)[C@@H]3CCCCN3CC)C3CCCCC3)C(C)(C)C)C(C)(C)C43CCC3)C[C@H]2CC)CC1 [Compound 76, (5R,8S)-7-[(2S)-2-{[(2S)-2-cyclohexyl-2-({[(2S)-1-ethylpiperidin-2-yl]carbonyl}amino)acetyl]amino}-3,3-dimethylbutanoyl]-N-[(1R,2R)-2-ethyl-1-{[(1-propylcyclopropyl)sulfonyl]carbamoyl}cyclopropyl]-10,10-dimethyl-7-azadispiro[3.0.4.1]decane-8-carboxamide] gave an IC50 [1] of 6 nM, a solubility at 24 h [2, 3] of at least 100 µM and a solubility at 24 h [2, 4] of at least 30 µM.
Compound CCCC1(S(=O)(=O)NC(=O)[C@@]2(NC(=O)[C@@H]3C[C@@]4(CN3C(=O)[C@@H](NC(=O)[C@@H](NC(=O)[C@@H]3CCCCN3C(C)C)C3CCCCC3)C(C)(C)C)C(C)(C)C43CCC3)C[C@H]2CC)CC1 [Compound 77, (5R,8S)-7-[(2S)-2-{[(2S)-2-cyclohexyl-2-({[(2S)-1-isopropylpiperidin-2-yl]carbonyl}amino)acetyl]amino}-3,3-dimethylbutanoyl]-N-[(1R,2R)-2-ethyl-1-{[(1-propylcyclopropyl)sulfonyl]carbamoyl}cyclopropyl]-10,10-dimethyl-7-azadispiro[3.0.4.1]decane-8-carboxamide] has an IC50 [1] of 2 nM, a solubility at 24 h [2, 3] of at least 100 µM and a solubility at 24 h [2, 4] of at least 30 µM.
CC[C@@H]1C[C@]1(NC(=O)[C@@H]1C[C@@]2(CN1C(=O)[C@@H](NC(=O)[C@@H](NC(=O)[C@@H]1CCCN1C(C)C)C1CCCCC1)C(C)(C)C)C(C)(C)C21CCC1)C(=O)NS(=O)(=O)C1(C)CC1 [Compound 82, (5R,8S)-7-[(2S)-2-{[(2S)-2-cyclohexyl-2-({[(2S)-1-isopropylpyrrolidin-2-yl]carbonyl}amino)acetyl]amino}-3,3-dimethylbutanoyl]-N-[(1R,2R)-2-ethyl-1-{[(1-methylcyclopropyl)sulfonyl]carbamoyl}cyclopropyl]-10,10-dimethyl-7-azadispiro[3.0.4.1]decane-8-carboxamide] showed an IC50 [1] of 2.4 nM, a solubility at 24 h [2, 3] of at least 100 µM and a solubility at 24 h [2, 4] of at least 30 µM.
In the case of C=C[C@@H]1C[C@]1(NC(=O)[C@@H]1C[C@@]2(CN1C(=O)[C@@H](NC(=O)OC(C)(C)C)C(C)C)C(C)(C)C21CCC1)C(=O)NS(=O)(=O)C1CC1 [compound 1, tert-butyl [(1S)-1-{[(5R,8S)-8-({(1R,2S)-1-[(cyclopropylsulfonyl)carba-moyl]-2-vinylcyclopropyl}carbamoyl)-10,10-dimethyl-7-azadispiro[3.0.4.1]dec-7-yl]carbonyl}-2-methylpropyl]carbamate, reference compound], the bioavailability (in vivo) is reported as 2%.
